The results in this text go back to patent US8420823B2, “Long-chain fatty acyl elongase inhibitor comprising arylsulfonyl derivative as active ingredient” (MSD K.K., priority 2008, dated 2013).

SMILES strings stand for the structures. Counter-ions that a name gives are not always drawn.

This assay concerns the target T1, human LCE (Homo sapiens, UniProt Q9H5J4).
T1 sequence (Q9H5J4 1-265): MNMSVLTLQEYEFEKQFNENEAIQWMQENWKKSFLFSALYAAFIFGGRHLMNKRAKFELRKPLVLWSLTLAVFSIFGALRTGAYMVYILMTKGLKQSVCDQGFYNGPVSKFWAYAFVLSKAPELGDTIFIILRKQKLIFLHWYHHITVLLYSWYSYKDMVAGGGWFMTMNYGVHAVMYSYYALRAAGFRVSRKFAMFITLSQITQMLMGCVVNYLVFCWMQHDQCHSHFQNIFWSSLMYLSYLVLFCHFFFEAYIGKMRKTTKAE
The assay can be described thus: LCE enzyme activity-inhibitory test. In kind it is biochemical. To be noted: [14C]-malonyl CoA / palmitoyl CoA substrate, 37° C., 90 minutes. How it is done:
Pharmacological Test Example 1 (LCE Enzyme Activity-inhibitory Test)
A test compound was dissolved in dimethyl sulfoxide (DMSO to be 10 mM), and then diluted with DMSO to prepare a 1000-fold concentrated solution of the test concentration. An improved Moon et al's method (J. Biol. Chem., Vol. 276, pp. 45358-45366, 2001) was employed for the LCE enzyme activity-inhibitor test. Concretely, the diluted compound was applied to a 96-well assay plate (Corning, 96-well assay block) in an amount of 1.0 μL/well; 50 μL of a phosphate buffer solution (100 mM potassium phosphate buffer, pH 6.5), and 25 μL of a substrate solution (100 mM potassium phosphate buffer (pH 6.5), 4.0 μM rotenone, 80 μM fatty acid-free bovine serum albumin, 160 μM palmitoyl CoA, 80 μM malonyl CoA, 3.5 μM [^14C]-malonyl CoA (1.92 GBq/mmol, by Amersham)) were added to each well; 25 μL of an enzyme solution (100 mM potassium phosphate buffer (pH 6.5), 100 μg/mL human LCE) was added thereto; the top of the plate was airtightly sealed up; and this was incubated with gently shaking and stirring at 37° C. for 90 minutes. Next, 100 μL of 5 M hydrochloric acid was added to each well, and the assay plate was stirred at room temperature for 5 minutes to stop the enzyme reaction with hydrolyzing the acyl CoA. Next, the enzyme reaction solution in each well was adsorbed by each well of a 96-well GF/C filter plate (Perkin Elmer Unifilter 96 GF/C); the individual wells were washed with water to remove the non-adsorbed malonyl CoA; and the GF/C filter plate was dried at 50° C. for 60 minutes. Next, 30 μL of a scintillator (Perkin Elmer Microscinti 0) was added to each well; then the top of the plate was sealed up; and the fixed [^14C] radioactivity was measured with a microplate scintillation counter (Perkin Elmer TopCount) to be the enzyme activity. The human LCE enzyme-inhibitory activity of the test compound was calculated, based on the radioactivity of the DMSO-added well with no test compound therein as a control.
Consider `O=C(Nc1cccc(Cl)c1)c1cccc(S(=O)(=O)N2CCCCC2)c1` [Example 90, N-(3-chlorophenyl)-3-(piperidin-1-ylsulfonyl)benzamide], for which the IC50 came out at 9.6 µM. This counts as single-digit micromolar. The molecule `O=C(Nc1ccccn1)c1cccc(S(=O)(=O)N2CCCCC2)c1` [Example 74, 2-{[3-(Piperidin-1-ylsulfonyl)benzoyl}amino]pyridine trifluoroacetate] yielded a half-maximal inhibitory concentration (IC50) of 4.9 µM. With `CC(C)Oc1ccc(NC(=O)c2cccc(S(=O)(=O)N3CCCC(c4nc5ccccc5o4)C3)c2)cc1` (centres unmarked) [Example 7, 3-{[3-(1,3-benzoxazol-2-yl)piperidin-1-yl]sulfonyl}-N-(4-isopropoxyphenyl)benzamide] the figure was 0.051 µM; with `CC(C)Oc1cc(NC(=O)c2cccc(S(=O)(=O)N3CCC(F)(F)CC3)c2)[nH]n1` [Example 68, 5-({3-[(4,4-difluoropiperidin-1-yl)sulfonyl]benzoyl}amino)-3-isopropoxy-1H-pyrazole hydrochloride], 0.013 µM; with `O=C(Nc1cccc2cnccc12)c1cccc(S(=O)(=O)N2CCCCC2)c1` [Example 76, 5-{[3-(piperidin-1-ylsulfonyl)benzoyl]amino}isoquinoline trifluoroacetate], 2.6 µM. The value for `CC(C)Oc1ccc(NC(=O)c2cc(S(=O)(=O)N3CCCCC3)ccc2OCCC#N)cc1` [Example 153, 2-(Cyanoethoxy)-N-(4-isopropoxyphenyl)-5-(piperidin-1-ylsulfonyl)benzamide] was 0.42 µM; that for `COc1ccc(NC(=O)c2cccc(S(=O)(=O)NC(C)(C)C)c2)cc1` [Example 45, 3-[(Tert-butylamino)sulfonyl]-N-(4-methoxyphenyl)benzamide] was 10 µM. With `COc1cccnc1NC(=O)c1cccc(S(=O)(=O)N2CCCC(C(=O)O)C2)c1` (centres unmarked) [Example 56, 1-[(3-{[(3-Methoxypyridin-2-yl)amino]carbonyl}phenyl)sulfonyl]piperidine-3-carboxylic acid] the figure was 3.2 µM. In turn, `CC(C)COc1ccc(NC(=O)c2cccc(S(=O)(=O)c3ccccn3)c2)c(F)c1` [Example 127, N-(2-fluoro-4-isobutoxyphenyl)-3-(pyridin-2-ylsulfonyl)benzamide] displayed a half-inhibitory concentration (IC50) of 1 µM. With `COC[C@H]1CCCN1S(=O)(=O)c1cccc(C(=O)Nc2ccc(C(C)C)cc2)c1` [Example 40, N-(4-Isopropylphenyl)-3-{[(2R)-2-(methoxymethyl)pyrrolidin-1-yl]sulfonyl}benzamide] the figure was 8 µM; with `CC(C)c1ccc(NC(=O)c2cccc(S(=O)(=O)N3CCCC(C(N)=O)C3)c2)cc1` (centres unmarked) [Example 34, 1-[(3-{[(4-Isopropylphenyl)amino]carbonyl]phenyl)sulfonyl}piperidine-3-carboxamide], 0.053 µM. With `CC(C)Oc1ccc(NC(=O)c2cccc(S(=O)(=O)N3CCC(F)(F)CC3)c2)cc1` [Example 17, 3-[(4,4-Difluoropiperidin-1-yl)sulfonyl]-N-(4-isopropoxyphenyl)benzamide] the figure was 0.34 µM; with `COc1cccnc1NC(=O)c1cccc(S(=O)(=O)N2CCC[C@@H]2C)c1` [Example 48, N-(3-methoxypyridin-2-yl)-3-{[(2S)-2-methylpyrrolidin-1-yl]sulfonyl}benzamide], 0.21 µM; with `CC(C)Oc1ccc(NC(=O)c2cccc(S(=O)(=O)N3CCCC(F)(F)C3)c2)cc1` [Example 19, 3-[(3,3-Difluoropiperidin-1-yl)sulfonyl]-N-(4-isopropoxyphenyl)benzamide], 1.5 µM. With `CC(C)Oc1ccc(NC(=O)c2cccc(S(=O)(=O)N3CCCC(CN4CCOCC4)C3)c2)cc1` (centres unmarked) [Example 14, N-(4-Isopropoxyphenyl)-3-{[3-(morpholin-4-ylmethyl)piperidin-1-yl]sulfonyl}benzamide trifluoroacetate] the figure was 1.2 µM. Molecule `O=C(Nc1cc(C2CC2)n[nH]1)c1cccc(S(=O)(=O)c2ncccn2)c1` [Example 140, N-(3-cyclopropyl-1H-pyrazol-5-yl)-3-(pyrimidin-2-ylsulfonyl)benzamide] showed an IC50 of 0.38 µM. The value for `CNC(=O)C1CCCN(S(=O)(=O)c2cccc(C(=O)Nc3ncccc3OC)c2)C1` (centres unmarked) [Example 60, 1-[(3-{[(3-methoxypyridin-2-yl)amino]carbonyl}phenyl)sulfonyl]-N-methylpiperidine-3-carboxamide] was 1.1 µM. Molecule `CC(C)Oc1ccc(NC(=O)c2cccc(S(=O)(=O)c3ccccn3)c2)c(F)c1` [Example 126, N-(2-fluoro-4-isopropoxyphenyl)-3-(pyridin-2-ylsulfonyl)benzamide] displayed an IC50 of 0.15 µM.

`CC(C)Oc1ccc(NC(=O)CCc2cccc(S(=O)(=O)N3CCCCC3)c2)cc1` [Example 162, N-(4-isopropoxyphenyl)-3-[3-(piperidin-1-ylsulfonyl)phenyl]propanamide]: the half-inhibitory concentration (IC50) was found to be 1.5 µM.

As to `COc1cc(Sc2ccccc2)cnc1NC(=O)c1cccc(S(=O)(=O)N2CCCC2)c1` [Example 111, N-[3-methoxy-5-(phenylthio)pyridin-2-yl]-3-(pyrrolidin-1-ylsulfonyl)benzamide], the IC50 was 0.25 µM.

For the molecule `CC(C)c1ccc(NC(=O)c2cccc(S(=O)(=O)N3CC[C@@H](F)C3)c2)cc1` [Example 33], the IC50 stood at 2.6 µM.

Turning to `O=C(Nc1ccc(Oc2ccccc2)nc1)c1cccc(S(=O)(=O)N2CCCCC2)c1` [Example 101, N-(6-phenoxypyridin-3-yl)-3-(piperidin-1-ylsulfonyl)benzamide], the IC50 is 0.91 µM. Take `O=C(Nc1ccc(Oc2ccccc2)cc1)c1cccc(S(=O)(=O)N2CCCCC2)c1` [Example 87, N-(4-phenoxyphenyl)-3-(piperidin-1-ylsulfonyl)benzamide]: inhibition was half-maximal at 0.21 µM (IC50). With `O=C(Nc1ccc(C(F)(F)F)cc1)c1cccc(S(=O)(=O)N2CCCCC2)c1` [Example 72, 3-(Piperidin-1-ylsulfonyl)-N-[4-(trifluoromethyl)phenyl]benzamide] the figure was 1.2 µM; with `CCC(C)Oc1ccc(NC(=O)c2cccc(S(=O)(=O)c3ccccn3)c2)c(F)c1` (centres unmarked) [Example 128, N-(4-sec-butoxy-2-fluorophenyl)-3-(pyridin-2-ylsulfonyl)benzamide], 0.19 µM; with `CC(C)Oc1ccc(NC(=O)c2cccc(S(=O)(=O)N3C[C@@H]4C[C@H]3CO4)c2)cc1` [Example 10, N-(4-isopropoxyphenyl)-3-[(1S,4S)-2-oxa-5-azabicyclo[2.2.1]hept-5-ylsulfonyl]benzamide], 0.76 µM. The value for `COc1cccnc1NC(=O)c1cccc(S(=O)(=O)N2CCOCC2)c1` [Example 47, N-(3-methoxypyridin-2-yl)-3-(morpholin-4-ylsulfonyl)benzamide] was 1.4 µM; that for `CC(C)Oc1ccc(NC(=O)c2cccc(S(=O)(=O)c3nc[nH]n3)c2)cc1` [Example 142, N-(4-isopropoxyphenyl)-3-(1H-1,2,4-triazol-3-ylsulfonyl)benzamide] was 5.1 µM. The value for `CC(C)c1ccc(NC(=O)c2cccc(S(=O)(=O)c3ccccc3)c2)cc1` [Example 136, N-(4-isopropylphenyl)-3-(phenylsulfonyl)benzamide] was 0.16 µM.

Take `CC(C)Oc1ccc(NC(=O)c2cc(S(=O)(=O)N3CCCCC3)ccc2OCC(=O)O)cc1` [Example 154, [2-{[(4-Isopropoxyphenyl)amino]carbonyl}-4-(piperidin-1-ylsulfonyl)phenoxy]acetic acid]: the concentration for half-maximal inhibition (IC50) was found to be 0.3 µM. Molecule `COc1ccc(NC(=O)c2cccc(S(=O)(=O)C3CCCCC3)c2)cc1` [Example 146, 3-(Cyclohexylsulfonyl)-N-(4-methoxyphenyl)benzamide] had a 50% inhibitory concentration (IC50) of 1.1 µM. `CC(C)Oc1ccc(NC(=O)c2cccc(S(=O)(=O)c3cnccn3)c2)cc1` [Example 141, N-(4-isopropoxyphenyl)-3-(pyrazin-2-ylsulfonyl)benzamide] gave an IC50 of 1.5 µM.

`COc1cc(Br)cnc1NC(=O)c1cccc(S(=O)(=O)N2CCCCC2)c1` [Example 106, N-(5-bromo-3-methoxypyridin-2-yl)-3-(piperidin-1-ylsulfonyl)benzamide] registered a half-maximal inhibitory concentration (IC50) of 1.8 µM. `CC(O)c1ccc(NC(=O)c2cccc(S(=O)(=O)N3CCCCC3)c2)cc1` (centres unmarked) [Example 93, N-[4-(1-hydroxyethyl)phenyl]-3-(piperidin-1-ylsulfonyl)benzamide] had an IC50 of 1.3 µM. `COc1ccc(NC(=O)c2cccc(S(=O)(=O)c3ccccc3)c2)cc1` [Example 133, N-(4-methoxyphenyl)-3-(phenylsulfonyl)benzamide] gave an IC50 of 3.7 µM.

By IC50 is commonly meant the concentration that gives 50% inhibition. A higher IC50 goes with lower potency.
